Assay results as given in ChEMBL document CHEMBL4715697, “Synthesis and biological activity of benzamide DNA minor groove binders” (2016).

Experiments:
Type in all cases: functional
MDA-MB-468 = experiment: Growth inhibition of human MDA-MB-468 cells assessed as cell growth at 0.01 uM incubated for 48 hrs by sulforhodamine B assay relative to control; details: read-out: Activity
IGROV-1 [1] = experiment: Growth inhibition of human IGROV-1 cells assessed as cell growth at 0.1 uM incubated for 48 hrs by sulforhodamine B assay relative to control; details: read-out: Activity
OVCAR-8 [2] = experiment: Growth inhibition of human OVCAR-8 cells assessed as cell growth at 0.1 uM incubated for 48 hrs by sulforhodamine B assay relative to control; details: read-out: Activity
DU-145 = experiment: Growth inhibition of human DU-145 cells assessed as cell growth at 0.01 uM incubated for 48 hrs by sulforhodamine B assay relative to control; details: read-out: Activity
MCF7 [3] = experiment: Growth inhibition of human MCF7 cells assessed as cell growth at 0.01 uM incubated for 48 hrs by sulforhodamine B assay relative to control; details: read-out: Activity
OVCAR-8 [4] = experiment: Growth inhibition of human OVCAR-8 cells incubated for 48 hrs by sulforhodamine B assay
IGROV-1 [5] = experiment: Growth inhibition of human IGROV-1 cells assessed as cell growth at 100 uM incubated for 48 hrs by sulforhodamine B assay relative to control; details: read-out: Activity
UO-31 [6] = experiment: Growth inhibition of human UO-31 cells assessed as cell growth at 1 uM incubated for 48 hrs by sulforhodamine B assay relative to control; details: read-out: Activity
RXF 393 [7] = experiment: Growth inhibition of human RXF 393 cells assessed as cell growth at 0.1 uM incubated for 48 hrs by sulforhodamine B assay relative to control; details: read-out: Activity
NCI/ADR-RES [8] = experiment: Growth inhibition of human NCI/ADR-RES cells assessed as cell growth at 100 uM incubated for 48 hrs by sulforhodamine B assay relative to control; details: read-out: Activity
MDA-MB-435 = experiment: Growth inhibition of human MDA-MB-435 cells assessed as cell growth at 1 uM incubated for 48 hrs by sulforhodamine B assay relative to control; details: read-out: Activity
UACC-62 = experiment: Growth inhibition of human UACC-62 cells assessed as cell growth at 100 uM incubated for 48 hrs by sulforhodamine B assay relative to control; details: read-out: Activity
NCI-H460 = experiment: Growth inhibition of human NCI-H460 cells assessed as cell growth at 1 uM incubated for 48 hrs by sulforhodamine B assay relative to control; details: read-out: Activity
Hs-578T = experiment: Growth inhibition of human Hs-578T cells assessed as cell growth at 100 uM incubated for 48 hrs by sulforhodamine B assay relative to control; details: read-out: Activity
SW-620 = experiment: Growth inhibition of human SW-620 cells incubated for 48 hrs by sulforhodamine B assay
NCI-H226 = experiment: Growth inhibition of human NCI-H226 cells assessed as cell growth at 0.01 uM incubated for 48 hrs by sulforhodamine B assay relative to control; details: read-out: Activity
MCF7 [9] = experiment: Growth inhibition of human MCF7 cells incubated for 48 hrs by sulforhodamine B assay
HL-60(TB) = experiment: Growth inhibition of human HL-60(TB) cells assessed as cell growth at 0.01 uM incubated for 48 hrs by sulforhodamine B assay relative to control; details: read-out: Activity
T47D = experiment: Growth inhibition of human T47D cells incubated for 48 hrs by sulforhodamine B assay
EKVX = experiment: Growth inhibition of human EKVX cells assessed as cell growth at 0.01 uM incubated for 48 hrs by sulforhodamine B assay relative to control; details: read-out: Activity
NCI-H522 = experiment: Growth inhibition of human NCI-H522 cells assessed as cell growth at 1 uM incubated for 48 hrs by sulforhodamine B assay relative to control; details: read-out: Activity
A498 = experiment: Growth inhibition of human A498 cells assessed as cell growth at 0.1 uM incubated for 48 hrs by sulforhodamine B assay relative to control; details: read-out: Activity
NCI-H23 = experiment: Growth inhibition of human NCI-H23 cells assessed as cell growth at 0.1 uM incubated for 48 hrs by sulforhodamine B assay relative to control; details: read-out: Activity
NCI/ADR-RES [10] = experiment: Growth inhibition of human NCI/ADR-RES cells assessed as cell growth at 1 uM incubated for 48 hrs by sulforhodamine B assay relative to control; details: read-out: Activity
RXF 393 [11] = experiment: Growth inhibition of human RXF 393 cells assessed as cell growth at 0.01 uM incubated for 48 hrs by sulforhodamine B assay relative to control; details: read-out: Activity
OVCAR-5 = experiment: Growth inhibition of human OVCAR-5 cells assessed as cell growth at 0.1 uM incubated for 48 hrs by sulforhodamine B assay relative to control; details: read-out: Activity
UO-31 [12] = experiment: Growth inhibition of human UO-31 cells assessed as cell growth at 100 uM incubated for 48 hrs by sulforhodamine B assay relative to control; details: read-out: Activity
SNB-75 [13] = experiment: Growth inhibition of human SNB-75 cells assessed as cell growth at 0.1 uM incubated for 48 hrs by sulforhodamine B assay relative to control; details: read-out: Activity
UO-31 [14] = experiment: Growth inhibition of human UO-31 cells incubated for 48 hrs by sulforhodamine B assay
OVCAR-3 = experiment: Growth inhibition of human OVCAR-3 cells assessed as cell growth at 100 uM incubated for 48 hrs by sulforhodamine B assay relative to control; details: read-out: Activity
ACHN = experiment: Growth inhibition of human ACHN cells assessed as cell growth at 0.1 uM incubated for 48 hrs by sulforhodamine B assay relative to control; details: read-out: Activity
MOLT-4 = experiment: Growth inhibition of human MOLT-4 cells assessed as cell growth at 0.1 uM incubated for 48 hrs by sulforhodamine B assay relative to control; details: read-out: Activity
BT-549 = experiment: Growth inhibition of human BT-549 cells assessed as cell growth at 0.01 uM incubated for 48 hrs by sulforhodamine B assay relative to control; details: read-out: Activity
NCI-H322M = experiment: Growth inhibition of human NCI-H322M cells incubated for 48 hrs by sulforhodamine B assay
SNB-75 [15] = experiment: Growth inhibition of human SNB-75 cells assessed as cell growth at 0.01 uM incubated for 48 hrs by sulforhodamine B assay relative to control; details: read-out: Activity
[16] = read-out: LC50 (the source's name)
[17] = read-out: pLC50 (the source's name) (converted)

`CC(=O)Nc1cc(CO[Si](C)(C)C(C)(C)C)cc(NC(=O)c2ccc(C(=O)Nc3cccc(NC(=O)CCCN(C)C)c3)cc2)c1` showed a growth at 0.01 µM (MDA-MB-468) of 93%, a growth at 0.1 µM (IGROV-1 [1]) of 103% and a growth at 0.1 µM (OVCAR-8 [2]) of 97%. For the same compound, the growth at 0.01 µM (DU-145) was 103%, the growth at 0.01 µM (MCF7 [3]) was 94% and the GI50 (OVCAR-8 [4]; read-out: GI50) was > 75 µM. The CC50 (OVCAR-8 [4]; [16]) was > 75 µM, the TGI (OVCAR-8 [4]; read-out: TGI) was > 75 µM and the GI50 (OVCAR-8 [4]; read-out: pGI50 (converted)) was > 75.9 µM. For the same compound, the CC50 (OVCAR-8 [4]; [17]) was > 75.9 µM, the TGI (OVCAR-8 [4]; read-out: pTGI) was > 75.9 µM and the growth at 100 µM (IGROV-1 [5]) was 75%. It also gave a growth at 1 µM (UO-31 [6]) of 105%, a growth at 0.1 µM (RXF 393 [7]) of 102% and a growth at 100 µM (NCI/ADR-RES [8]) of 92%. It also gave a growth at 1 µM (MDA-MB-435) of 94%, a growth at 100 µM (UACC-62) of 72% and a growth at 1 µM (NCI-H460) of 99%. For the same compound, the growth at 100 µM (Hs-578T) was 89%, the GI50 (SW-620; read-out: GI50) was > 75 µM and the LC50 (SW-620; read-out: LC50) was > 75 µM. For the same compound, the TGI (SW-620; read-out: TGI) was > 75 µM, the GI50 (SW-620; read-out: pGI50 (converted)) was > 75.9 µM and the LC50 (SW-620; read-out: pLC50 (converted)) was > 75.9 µM. For the same compound, the TGI (SW-620; read-out: pTGI) was > 75.9 µM, the growth at 0.01 µM (NCI-H226) was 96% and the GI50 (MCF7 [9]; read-out: GI50) was 29.7 µM. For the same compound, the CC50 (MCF7 [9]; [16]) was > 75 µM, the TGI (MCF7 [9]; read-out: TGI) was > 75 µM and the GI50 (MCF7 [9]; read-out: pGI50 (converted)) was 29.5 µM. The CC50 (MCF7 [9]; [17]) was > 75.9 µM, the TGI (MCF7 [9]; read-out: pTGI) was > 75.9 µM and the growth at 0.01 µM (HL-60(TB)) was 102%. The GI50 (T47D; read-out: GI50) was > 75 µM, the CC50 (T47D; [16]) was > 75 µM and the TGI (T47D; read-out: TGI) was > 75 µM. The GI50 (T47D; read-out: pGI50 (converted)) was > 75.9 µM, the CC50 (T47D; [17]) was > 75.9 µM and the TGI (T47D; read-out: pTGI) was > 75.9 µM. It also gave a growth at 0.01 µM (EKVX) of 101%, a growth at 1 µM (NCI-H522) of 86% and a growth at 0.1 µM (A498) of 62%. For the same compound, the growth at 0.1 µM (NCI-H23) was 98%, the growth at 1 µM (NCI/ADR-RES [10]) was 97% and the growth at 0.01 µM (RXF 393 [11]) was 101%. It also gave a growth at 0.1 µM (OVCAR-5) of 93%, a growth at 100 µM (UO-31 [12]) of 89% and a growth at 0.1 µM (SNB-75 [13]) of 83%. For the same compound, the GI50 (UO-31 [14]; read-out: GI50) was > 75 µM, the CC50 (UO-31 [14]; [16]) was > 75 µM and the TGI (UO-31 [14]; read-out: TGI) was > 75 µM. For the same compound, the GI50 (UO-31 [14]; read-out: pGI50 (converted)) was > 75.9 µM, the CC50 (UO-31 [14]; [17]) was > 75.9 µM and the TGI (UO-31 [14]; read-out: pTGI) was > 75.9 µM. It also gave a growth at 100 µM (OVCAR-3) of 105%, a growth at 0.1 µM (ACHN) of 97% and a growth at 0.1 µM (MOLT-4) of 91%. The growth at 0.01 µM (BT-549) was 95%, the GI50 (NCI-H322M; read-out: GI50) was > 75 µM and the CC50 (NCI-H322M; [16]) was > 75 µM. For the same compound, the TGI (NCI-H322M; read-out: TGI) was > 75 µM, the GI50 (NCI-H322M; read-out: pGI50 (converted)) was > 75.9 µM and the CC50 (NCI-H322M; [17]) was > 75.9 µM. The TGI (NCI-H322M; read-out: pTGI) was > 75.9 µM and the growth at 0.01 µM (SNB-75 [15]) was 93%.
